According to patent US10058525B2, “Application of chlorogenic acid in preparing medicines for treating lupus erythematosus” (SICHUAN JIUZHANG BIOLOGICAL SCIENCE AND TECHNOLOGY CO., LTD., priority 2015, dated 2018):
Entries after “also recorded” stand apart in the source; their conditions may differ.

Key:
[1] = system: lupus erythematosus model mice (renal glomerular capsule wall epithelial cells); assay: Electron microscope observation of kidney samples, lupus model mice; assay type: in vivo, BALB/c mice; conditions: 21 days
Procedure: The back of mice was shaved and acutely exposed to Ultraviolet of 2 h/d*3 d, with a distance of 30 cm. After exposure to UV, 2.5 mg/kg of LPS was administrated once by ip, and after 24 h, the model was successfully established; the mice in the normal control group received normal saline via ip. 24 h after injection of LPS (ip), medicines were given to the model mice by intragastric administration. Chlorogenic acid test groups received high, middle, and low doses of medicines, by intragastric administration at a respective dosage of 10 mg/kg*d, 20 mg/kg*d, and 40 mg/kg*d. The positive control group A received 2 mg/kg*d of artesunate by stomach perfusion, while the positive control group B received 1 mg/kg*d of prednisone by stomach perfusion. Mice in the model and normal control group all received 0.4 ml/mouse normal saline by gavage. After 15 days of administration, animals in each group were taken blood by separating eyeballs on days 14, 21, 28, and after cultured in water bath at 37° C. for 1 h, the blood sample was centrifugated at 2000 r/min for 5 min, to draw serum for use. On day 21, after blood collection, animals were sacrificed by dislocation, followed by collection of liver and kidney, and they were placed in fixative solutions of electron microscope and light microscrope, respectively. On day 21, the sample used for observation under electron microscope was fixed in mixed stationary solution of 2% paraformaldehyde+0.25% glutaral for 4 h, rinsed with TBS, treated with 1% osmic acid, followed by fixation for 1 h, rinsed with buffer solution, dehydrated with acetone, dyed with uranyl acetate for 2 h, macerated in Epon812 and embedded, and cut into slices with LEICA ultramicrotome. The slices were stained with lead solution, and the sample was observed under transmission electron microscope when it was dry.

lupus erythematosus = assay: Screening medicines for treatment of lupus erythematosus; conditions: screening of extracts and potency constituents; no method given
[2] = system: ENA polypeptide antibodies (anti-Sm, anti-Rib, anti-ssA, anti-ssB); assay: Serologic detection of ENA polypeptide antibodies by immunoblotting in serum of UV + LPS lupus model mice; assay type: in vivo, BALB/c mice; parameters: key to Anti-Rib: (+): positive; (−): negative; key to Anti-Sm / Anti-ssA / Anti-ssB: (+): positive; (−): negative; (++++): intenseintensity; (+++): stronger fluorescent intensity; conditions: for Anti-Rib / Anti-Sm / Anti-ssA / Anti-ssB: intragastric; for ENA polypeptide antibodies found positive (FIG. 1): treated 14 days
Procedure: The back of mice was shaved and acutely exposed to Ultraviolet of 2 h/d*3 d, with a distance of 30 cm. After exposure to UV, 2.5 mg/kg of LPS was administrated once by ip, and after 24 h, the model was successfully established; the mice in the normal control group received normal saline via ip. 24 h after injection of LPS (ip), medicines were given to the model mice by intragastric administration. Chlorogenic acid test groups received high, middle, and low doses of medicines, by intragastric administration at a respective dosage of 10 mg/kg*d, 20 mg/kg*d, and 40 mg/kg*d. The positive control group A received 2 mg/kg*d of artesunate by stomach perfusion, while the positive control group B received 1 mg/kg*d of prednisone by stomach perfusion. Mice in the model and normal control group all received 0.4 ml/mouse normal saline by gavage. After 15 days of administration, animals in each group were taken blood by separating eyeballs on days 14, 21, 28, and after cultured in water bath at 37° C. for 1 h, the blood sample was centrifugated at 2000 r/min for 5 min, to draw serum for use. On day 21, after blood collection, animals were sacrificed by dislocation, followed by collection of liver and kidney, and they were placed in fixative solutions of electron microscope and light microscrope, respectively. Serum of mice was diluted at 1:100 with special buffer solution of Shenzhen Hengjia, and then 200 μL of diluted serum was respectively added to the reactive tank with corresponding number, cultured in the incubator at 37° C. for 30 min, and washed with the buffer solution four times, 2 min for each time; 200 μL of diluted biotin goat anti-mouse IgG (1:100) was added, cultured in the incubator at 37° C. for 30 min, and then washed with the buffer solution four times, 2 min for each time; 100 μL of diluted HRP-avidin (1:100) was added, cultured in the incubator at 37° C. for 30 min, and then washed as mentioned-above; reactive solutions A and B were added till appearance of positive bands, then washed with the buffer solution. Compared with the standard bands of ENA polypeptide antibody spectrum in the same kit, if the positive bands appeared at 28/29,13.5 ku polypeptide; 15,16.5,38 kupolypeptide; 52 kupolypeptide and 47/48,45 kupolypeptide, that can be determined as anti-Sm, anti-Rib, anti-ssA, and anti-ssB positive antibody. Serum was diluted with PBS at 1:40, then 20-30 μL of diluted serum was dropped into the scrobiculus of HEp-2 cell sheets, each cell sheet for each group. In the process of dropping serum, it should be noted that the surface of cell sheet can not be touched. After addition of serum, cell sheet was placed in wet box and kept for 30 min at room temperature (25° C.). After 30 min, the cell sheet was taken out, and serum was carefully washed out with PBS, then carefully washed twice with PBS, 5 min for each time; after washing, the remained PBS was removed by special absorbent paper of […] company (In this process, it should be noted that becoming dry of cell substrates will affect the results). 20-30 μL of diluted (PBS, 1:100) FITC goat anti-mouse IgG was added by dropping, and then incubated in wet box at room temperature for 30 min. After washing with PBS, steps were same to above. The remained PBS was removed by absorbent paper, and 1-2 drops of fluorescent mounting media were added to the cell sheet. The cover glass was mounted, observed under Olympus BH-2 universal microscope, and then photographed.

[3] = day 14, chlorogenic acid high dose
[4] = day 14, chlorogenic acid low dose
[5] = day 14, chlorogenic acid middle dose
[6] = day 21, chlorogenic acid high dose
[7] = day 21, chlorogenic acid low dose
[8] = day 21, chlorogenic acid middle dose
[9] = day 28, chlorogenic acid high dose
[10] = day 28, chlorogenic acid low dose
[11] = day 28, chlorogenic acid middle dose

Compound: O=C(/C=C/c1ccc(O)c(O)c1)O[C@@H]1C[C@](O)(C(=O)O)C[C@@H](O)[C@H]1O [Chlorogenic acid, 3-O-caffeoylquinic acid]
- proliferative degree of renal glomerular capsule wall epithelial cells ([1]; chlorogenic acid (all dose groups)): somewhat relieved
- proliferative degree of glomerular capsule wall epithelial cells ([1]; high-dose group of chlorogenic acid): somewhat relieves; also recorded: the release degree in high dose group was the most obvious
- inhibition on lupus erythematosus (lupus erythematosus): more obvious inhibition
- Anti-Rib [2, 3]: (+)
- Anti-Sm [2, 3]: (+)
- Anti-ssA [2, 3]: (+)
- Anti-ssB [2, 3]: (+)
- Anti-Rib [2, 4]: (+)
- Anti-Sm [2, 4]: (+)
- Anti-ssA [2, 4]: (+)
- Anti-ssB [2, 4]: (+)
- Anti-Rib [2, 5]: (+)
- Anti-Sm [2, 5]: (+)
- Anti-ssA [2, 5]: (+)
- Anti-ssB [2, 5]: (+)
- Anti-Rib [2, 6]: (+)
- Anti-Sm [2, 6]: (+)
- Anti-ssA [2, 6]: (+)
- Anti-ssB [2, 6]: (+)
- Anti-Rib [2, 7]: (+)
- Anti-Sm [2, 7]: (+)
- Anti-ssA [2, 7]: (+)
- Anti-ssB [2, 7]: (+)
- Anti-Rib [2, 8]: (+)
- Anti-Sm [2, 8]: (+)
- Anti-ssA [2, 8]: (+)
- Anti-ssB [2, 8]: (+)
- Anti-Rib [2, 9]: (−)
- Anti-Sm [2, 9]: (+)
- Anti-ssA [2, 9]: (−)
- Anti-ssB [2, 9]: (−)
- Anti-Rib [2, 10]: (+)
- Anti-Sm [2, 10]: (+)
- Anti-ssA [2, 10]: (+)
- Anti-ssB [2, 10]: (+)
- Anti-Rib [2, 11]: (−)
- Anti-Sm [2, 11]: (+)
- Anti-ssA [2, 11]: (+)
- Anti-ssB [2, 11]: (+)
- ENA polypeptide antibodies found positive (FIG. 1) ([2]; high dose of chlorogenic acid): anti-Sm, anti-ssA and anti-ssB bodies are positive
- ENA polypeptide antibodies found positive (FIG. 1) ([2]; low dose of chlorogenic acid): anti-Sm, anti-ssA and anti-ssB bodies are positive
- ENA polypeptide antibodies found positive (FIG. 1) ([2]; middle dose of chlorogenic acid): anti-Sm, anti-Rib, anti-ssA and anti-ssB bodies are positive
